From patent publication EP2628482A1, “Rho kinase inhiitors for use in the treatment of neuroblastoma” (Academisch Medisch Centrum, priority 2012, dated 2013)
Structures can show the parent of a compound that is named as a salt.

Key:
off-target kinases = details: reported by Aerie Pharmaceuticals; cited from earlier work
ROCK = details: cited from earlier work
SHEP2 cells = assay: Immunofluorescence (actin / tubulin staining); type: cell-based; details: 50 micromolar, 24 hours of treatment
[1] = tested on: neuroblastoma cell lines (SKNBE, IMR, SJNB8, SHEP2, SKNAS, SY5Y); assay: MTT assay (cell viability); type: cell-based; details: for cell viability: all 6 neuroblastoma cell lines, 72 hours, 3 to 200 µM; for IC50: range over 6 neuroblastoma cell lines, 72 hours treatment, dose efficacy curves, read-out: IC50 (concentration drug needed for 50% cell viability reduction)
Protocol: To determine the sensitivity of the cell lines for the ROCK-inhibitors Y27632 and HA 1077 MTT assays were done. […] The IC50 (concentration drug needed for 50% cell viability reduction) of Y27632 determined by dose efficacy curves varied from 18 to 90 µM.
Cells were plated in a 10-30% confluence in a 96-well plate and treated after 24 hours with Y27632 (=Y27632 dihydrochloride; Tocris; Cat.nr. 1254) and HA1077 (=Fasudil hydrochloride; Tocris; Cat.nr. 0541) in a concentration ranging from 3 to 200 µM. 72 hours after treatment, 10 µl of Thyazolyl blue tetrazolium bromide (MTT, Sigma M2128) was added. After 4 hours of incubation 100 µl of 10% SDS, 0.01 M HCI was added to stop the reaction. The absorbance was measured at 570 nm and 720 nm using a platereader (biotech). The IC50 (concentration drug needed for 50% cell viability reduction) was calculated using concentration vector curves.

[2] = tested on: neuroblastoma cell lines (IMR32, SJNB8, SKNBE, SY5Y, SHEP2, SKNAS); assay: Light microscopy of phenotypical changes after ROCK inhibitor treatment; type: cell-based; details: 25µM, 65 hours; cell bodies smaller, more elongated, neurite outgrowths appear

IC50 [1] | SMILES | number of off-target kinases tested at which activity was seen (off-target kinases) | potency against ROCK (ROCK) | actin organization (phalloidin staining) (SHEP2 cells) | tubulin localization (SHEP2 cells) | cell viability [1] | phenotype of the cells (light microscope) [2]
– | CN(C)C(C(=O)Nc1ccc2c(=O)[nH]ccc2c1)c1ccsc1 (centres unmarked) [AR-12286] | 5 | nanomolar potency | – | – | – | –
15 to 45 µM | O=S(=O)(c1cccc2cnccc12)N1CCCNCC1 [HA 1077, Fasudil hydrochloride] | – | – | structured actin fibres (green) disappear | moves from a nuclear localization towards the cytoplasm | decrease in viability | more neuronal-like (differentiated) phenotype
18 to 90 µM | C[C@@H](N)[C@H]1CC[C@H](C(=O)Nc2ccncc2)CC1 [Y27632, Y27632 dihydrochloride] | – | – | – | – | decrease in viability | more neuronal-like (differentiated) phenotype
– | C[C@@H](N)c1ccc(C(=O)Nc2ccnc3[nH]ccc23)cc1 [Y-39983/SNJ-1656/RKI-983] | 25 | – | – | – | – | –
